Columns and labels:
Format in all cases: in vivo
[1] = tested on: velvetleaf (Abutilon theophrasti); assay: Test C pre-/postemergence greenhouse herbicide test; settings: Preemergence; for Plant response rating, Velvetleaf: visual rating on scale 0 (no effect) to 100 (complete control), 13 to 15 d
Description: (§1) Seeds of plant species selected from blackgrass (Alopecurus myosuroides), bromegrass, downy (downy bromegrass, Bromus tectorum), foxtail, green (green foxtail, Setaria viridis), ryegrass, Italian (Italian ryegrass, Lolium multiflorum), wheat (winter wheat, Triticum aestivum), oat, wild (wild oat, Avena fatua), galium (catchweed bedstraw, Galium aparine), bermudagrass (Cynodon dactylon), surinam grass (Brachiaria decumbens), cocklebur (common cocklebur, Xanthium strumarium), corn (Zea mays), crabgrass, large (large crabgrass, Digitaria sanguinalis), cupgrass, woolly (woolly cupgrass, Eriochloa villosa), foxtail, giant (giant foxtail, Setaria faberii), goosegrass (Eleusine indica), johnsongrass (Sorghum halepense), kochia (Kochia scoparia), lambsquarters (Chenopodium album), morningglory (Ipomoea coccinea), nightshade (eastern black nightshade, Solanum ptycanthum), nutsedge, yellow (yellow nutsedge, Cyperus esculentus), pigweed (Amaranthus retroflexus), ragweed (common ragweed, Ambrosia elatior), soybean (Glycine max), sunflower (common oilseed sunflower, Helianthus annuus), Russian thistle (Salsola kali), barnyardgrass (Echinochloa crus-galli), oilseed rape (Brassica napus), waterhemp (common waterhemp, Amaranthus rudis), and velvetleaf (Abutilon theophrasti) were planted into a blend of loam soil and sand and treated preemergence with test chemicals formulated in a non-phytotoxic solvent mixture which included a surfactant.
(§2) At the same time, plants selected from these crop and weed species and also barley (winter barley, Hordeum vulgare), canarygrass (Phalaris minor), windgrass (Apera spica-venti), deadnettle (henbit deadnettle, Lamium amplexicaule), and chickweed (common chickweed, Stellaria media) were planted in pots containing Redi-Earth® planting medium (Scotts Company, 14111 Scottslawn Road, Marysville, Ohio 43041) comprising spaghnum peat moss, vermiculite, wetting agent and starter nutrients and treated with postemergence applications of test chemicals formulated in the same manner. Plants ranged in height from 2 to 18 cm (1- to 4-leaf stage) for postemergence treatments. Treated plants and controls were maintained in a greenhouse for 13 to 15 d, after which time all species were compared to controls and visually evaluated. Plant response ratings, summarized in Table C, are based on a scale of 0 to 100 where 0 is no effect and 100 is complete control. A dash (-) response means no test result.

[2] = tested on: pigweed (Amaranthus retroflexus); assay: as above; settings: Preemergence; for Plant response rating, Pigweed: visual rating on scale 0 (no effect) to 100 (complete control), 13 to 15 d
Description: as §1, §2

[3] = tested on: oilseed rape (Brassica napus); assay: as above; settings: Preemergence; for Plant response rating: Oilseed Rape; for Plant response rating, Oilseed Rape: visual rating on scale 0 (no effect) to 100 (complete control), 13 to 15 d
Description: as §1, §2

[4] = tested on: nutsedge, yellow (yellow nutsedge, Cyperus esculentus); assay: as above; settings: Preemergence; for Plant response rating, Nutsedge, Yellow: visual rating on scale 0 (no effect) to 100 (complete control), 13 to 15 d
Description: as §1, §2

soybean (Glycine max) = assay: as above; settings: Preemergence; for Plant response rating, Soybean: visual rating on scale 0 (no effect) to 100 (complete control), 13 to 15 d
Description: as §1, §2

[5] = tested on: foxtail, giant (giant foxtail, Setaria faberii); assay: as above; settings: Preemergence; for Plant response rating, Foxtail, Giant: visual rating on scale 0 (no effect) to 100 (complete control), 13 to 15 d
Description: as §1, §2

corn (Zea mays) = assay: as above; settings: Preemergence; for Plant response rating, Corn: visual rating on scale 0 (no effect) to 100 (complete control), 13 to 15 d
Description: as §1, §2

[6] = tested on: johnsongrass (Sorghum halepense); assay: as above; settings: Preemergence; for Plant response rating, Johnsongrass: visual rating on scale 0 (no effect) to 100 (complete control), 13 to 15 d
Description: as §1, §2

[7] = tested on: barnyardgrass (Echinochloa crus-galli); assay: Test B flooded paddy test; settings: Echinochloa crus-galli, 312 h; Flood, 250 g ai/ha; scale of 0 to 100, 0 is no effect, 100 is complete control; 13 to 15 d; read-out: Plant response rating, Barnyardgrass
Summary of the method: (§3)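 Seedlings at 2 leaves are flooded to 3 cm, compound is added to the water, and that level is kept for the whole test. Plants stay in the greenhouse 13 to 15 d before visual comparison with controls, scored 0–100 where 100 means complete control.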

[8] = tested on: ducksalad (Heteranthera limosa); assay: Test B flooded paddy test; settings: Heteranthera limosa, 312 h; Flood, 250 g ai/ha; scale of 0 to 100, 0 is no effect, 100 is complete control; 13 to 15 d; read-out: Plant response rating, Ducksalad
Summary of the method: as §3

SMILES: CCOc1cc(=O)n(-c2ccc(F)cc2)nc1C(O)c1ccnc(C(F)(F)F)c1 (centres unmarked) [Compound 23, 5-ethoxy-2-(4-fluorophenyl)-6-[hydroxy[2-(trifluoromethyl)-4-pyridinyl]methyl]-3(2H)-pyridazinone]
- pest or weed control at 62 g/ha ([1]; Abutilon theophrasti, pre-emergence, Velvetleaf, 62 g ai/ha, read-out: Plant response rating): 100%
- Plant response rating, Velvetleaf ([1]; 8 g ai/ha): 0
- Plant response rating, Velvetleaf ([1]; 16 g ai/ha): 15
- pest or weed control at 31 g/ha ([2]; Amaranthus retroflexus, pre-emergence, Pigweed, 31 g ai/ha, read-out: Plant response rating): 100%
- pest or weed control at 62 g/ha ([2]; Amaranthus retroflexus, pre-emergence, Pigweed, 62 g ai/ha, read-out: Plant response rating): 100%
- Plant response rating, Pigweed ([2]; 8 g ai/ha): 98
- Plant response rating, Pigweed ([2]; 16 g ai/ha): 100
- Plant response rating ([3]; 31 g ai/ha): 80
- Plant response rating ([3]; 62 g ai/ha): 85
- Plant response rating, Oilseed Rape ([3]; 8 g ai/ha): 5
- Plant response rating, Oilseed Rape ([3]; 16 g ai/ha): 5
- pest or weed control at 31 g/ha ([4]; Cyperus, pre-emergence, Nutsedge, Yellow, 31 g ai/ha, read-out: Plant response rating): 0%
- pest or weed control at 62 g/ha ([4]; Cyperus, pre-emergence, Nutsedge, Yellow, 62 g ai/ha, read-out: Plant response rating): 0%
- Plant response rating, Nutsedge, Yellow ([4]; 8 g ai/ha): 0
- Plant response rating, Nutsedge, Yellow ([4]; 16 g ai/ha): 0
- plant injury at 62 g/ha (soybean (Glycine max); Glycine max, pre-emergence, Soybean, 62 g ai/ha, read-out: Plant response rating): 25%
- Plant response rating, Soybean (soybean (Glycine max); 8 g ai/ha): 0
- Plant response rating, Soybean (soybean (Glycine max); 16 g ai/ha): 0
- Plant response rating, Foxtail, Giant ([5]; 8 g ai/ha): 5
- Plant response rating, Foxtail, Giant ([5]; 16 g ai/ha): 55
- pest or weed control at 31 g/ha ([5]; Setaria faberi, pre-emergence, Foxtail, Giant, 31 g ai/ha, read-out: Plant response rating): 75%
- pest or weed control at 62 g/ha ([5]; Setaria faberi, pre-emergence, Foxtail, Giant, 62 g ai/ha, read-out: Plant response rating): 90%
- Plant response rating, Corn (corn (Zea mays); 8 g ai/ha): 0
- Plant response rating, Corn (corn (Zea mays); 16 g ai/ha): 5
- plant injury at 31 g/ha (corn (Zea mays); Zea mays, pre-emergence, Corn, 31 g ai/ha, read-out: Plant response rating): 5%
- plant injury at 62 g/ha (corn (Zea mays); Zea mays, pre-emergence, Corn, 62 g ai/ha, read-out: Plant response rating): 15%
- Plant response rating, Johnsongrass ([6]; 8 g ai/ha): 0
- Plant response rating, Johnsongrass ([6]; 16 g ai/ha): 5
- pest or weed control at 31 g/ha ([6]; Sorghum halepense, pre-emergence, Johnsongrass, 31 g ai/ha, read-out: Plant response rating): 5%
- pest or weed control at 62 g/ha ([6]; Sorghum halepense, pre-emergence, Johnsongrass, 62 g ai/ha, read-out: Plant response rating): 10%
- pest or weed control at 250 g/ha [7]: 10%
- pest or weed control at 250 g/ha [8]: 80%
